System: nitrification of the ammonia nitrogen (NH4—N) in the sludge
Assay: Nitrification batch test in crop soil/water sludge under nitrifying conditions
Details: for inhibition of nitrification of ammonia nitrogen (NH4—N) in the sludge: Tables 3 and 4, in words; for nitrification process: first 8 hours; for NH4—N Conversion Rate During First 24 Hours: dosed NH4—N 50 mg/l; for NH4—N Conversion Rate During First 24 Hours / COD / NH4—N concentration / NO3—N concentration: DCD 5.8 mg/l
Experimental: Crop soil and water were combined to form a sludge. The freshly-acquired sludge contained a high amount of nitrate nitrogen, therefore, the sludge was pretreated to reduce the chance of denitrification during analysis. Ethylene glycol was added to the sludge and the resulting sludge was purged with nitrogen gas for 24 hours to eliminate the nitrate nitrogen. After 24 hours, the sludge was aerated to eliminate the residual chemical oxygen demand (COD) which could be present. COD refers to the amount of oxygen required to degrade all oxidizable compounds in a measured sample.
A nitrification batch test was performed under nitrifying conditions. The activity of nitrification inhibitor Formula II compound was compared to that of the nitrification inhibitor dicyandiamide (DCD). COD and NH4—N were added to the sludge with one of the Formula II compound or DCD. COD, NH4—N, and NO3—N concentrations were monitored over time (t=0, 2, 4, 6, 8, 24 and 29 hours). The COD and NH4—N removal was calculated from the analysis results. Glycol was included as a reference in the test.
The pH and oxygen content were also monitored during the tests. The pH level was kept between 7 and 8 at the beginning of the tests by adding 1N HCl or 1N NaOH. Oxygen was constantly purged into the sludge solutions throughout the test to get maximum aeration.
Table 2 includes the concentrations assessed for the five batch tests. A sample concentration of approximately 10% compared to the NH4—N concentration was employed.
Values shown in brackets are below the quantification limit and are indicative. Measurements taken at time=0 were taken 60 seconds after mixing the sludge with the indicated substance. The nitrification process was nominal for both DCD and Formula II compound during the first 8 hours, then nitrification rates increased. The NH4—N and NO3—N concentrations were tested at 29 hours to verify that the nitrification process was still ongoing.

[1] = first 24 hours, Formula II compound 7.6 mg/l
[2] = time 0 h (60 seconds after mixing), dosed COD 800 mg O2/l, NH4—N 50 mg/l, Formula II compound 7.6 mg/l
[3] = time 2 h, dosed COD 800 mg O2/l, NH4—N 50 mg/l, Formula II compound 7.6 mg/l
[4] = time 4 h, dosed COD 800 mg O2/l, NH4—N 50 mg/l, Formula II compound 7.6 mg/l
[5] = time 6 h, dosed COD 800 mg O2/l, NH4—N 50 mg/l, Formula II compound 7.6 mg/l
[6] = time 8 h, dosed COD 800 mg O2/l, NH4—N 50 mg/l, Formula II compound 7.6 mg/l
[7] = time 24 h, dosed COD 800 mg O2/l, NH4—N 50 mg/l, Formula II compound 7.6 mg/l
[8] = time 29 h, dosed COD 800 mg O2/l, NH4—N 50 mg/l, Formula II compound 7.6 mg/l

Compound	inhibition of nitrification of ammonia nitrogen (NH4—N) in the sludge	nitrification process (in words)	NH4—N Conversion Rate During First 24 Hours [1]	COD [2]	NH4—N concentration [2]	NO3—N concentration [2]	COD [3]	NH4—N concentration [3]	NO3—N concentration [3]	COD [4]	NH4—N concentration [4]	NO3—N concentration [4]	COD [5]	NH4—N concentration [5]	NO3—N concentration [5]	COD [6]	NH4—N concentration [6]	NO3—N concentration [6]	COD [7]	NH4—N concentration [7]	further results
N#CNC(=N)N [DCD, dicyandiamide, reference compound]	effective at inhibiting the nitrification of the ammonia nitrogen (NH4—N) in the sludge	nominal	1.5 mg NH4—N/l · h	757 mg O2/l	45.9 mg/L	8.6 mg/L	558 mg O2/l	43.0 mg/L	5.5 mg/L	360 mg O2/l	39.4 mg/L	8.9 mg/L	190 mg O2/l	39.7 mg/L	7.4 mg/L	121 mg O2/l	33.2 mg/L	7.3 mg/L	48 mg O2/l	9.9 mg/L	NO3—N concentration [7]: 39.0 mg/L; NH4—N concentration [8]: 4.0 mg/L; NO3—N concentration [8]: 47.2 mg/L
OCn1cncn1 [Formula II compound, (1H-1,2,4-triazole-1-yl)-methanol]	effective at inhibiting the nitrification of the ammonia nitrogen (NH4—N) in the sludge	nominal	0.9 mg NH4—N/l · h	718 mg O2/l	45.2 mg/L	8.8 mg/L	497 mg O2/l	41.6 mg/L	13.8 mg/L	314 mg O2/l	40.3 mg/L	11.8 mg/L	204 mg O2/l	42.0 mg/L	7.2 mg/L	158 mg O2/l	37.9 mg/L	< 2.3 mg/L	60 mg O2/l	23.8 mg/L	effectiveness at inhibiting nitrification compared with DCD (first 24 hours, in words): more effective at inhibiting nitrification during the first 24 hours; NO3—N concentration, indicative value in brackets (below the quantification limit) [6]: 1.5 mg/L; NO3—N concentration [7]: 16.2 mg/L; NH4—N concentration [8]: 22.9 mg/L; NO3—N concentration [8]: 20.4 mg/L
